# According to US20100081679A1, “DIAMINOPYRIMIDINES AS FUNGICIDES” (Bayer CropScience AG, priority 2007, published 2010):
# Marks after values point to notes of the source that are not given here.
# Experiment: logP determination via retention times, calibrated with unbranched alkan-2-ones
# Format: physicochemical
# Details: HPLC on reversed-phase C 18, EEC Directive 79/831 Annex V.A8; method *: 40° C., 0.1% aqueous formic acid and acetonitrile, linear gradient 10% to 95% acetonitrile
row,logP,Compound
1,2.95*,FC(F)C(F)(F)Oc1cccc(Nc2ncc(Cl)c(NCC3CC3)n2)c1 [compound 527]
2,2.21*,O=C(Nc1cccc(Nc2ncc(Cl)c(NCC3CC3)n2)c1)c1ccccc1 [compound 557]
3,2.91*,FC(F)Sc1ccc(Nc2ncc(Cl)c(NCC3CC3)n2)cc1 [compound 559]
4,2.84*,Brc1ccc(Nc2ncc(Br)c(NCC3CC3)n2)cc1 [compound 472]
5,2.17*,O=S(=O)(Cc1ccc(Nc2ncc(Cl)c(NC3CC3)n2)cc1)N1CCCCC1 [compound 537]
6,1.85*,CC(=O)c1cc(Nc2ncc(Cl)c(NCC3CC3)n2)ccc1O [compound 553]

# Same assay, conditions: HPLC on reversed-phase C 18, method **: 43° C.; 0.1% aqueous phosphoric acid and acetonitrile; linear gradient 10% to 95% acetonitrile
row,logP,Compound
1,2.56**,COc1cc(Nc2ncc(C(F)(F)F)c(NC3CC3)n2)cc(OC)c1OC [compound 719]

# Same assay, conditions: HPLC on reversed-phase C18, method **: 43° C.; mobile phase 0.1% aqueous phosphoric acid and acetonitrile; linear gradient 10% to 95% acetonitrile
row,logP,Compound
1,2.3**,CC(C)(C)NS(=O)(=O)c1ccc(Nc2ncc(Cl)c(NC3CC3)n2)cc1 [compound 306]

# Same assay, conditions: HPLC on reversed-phase C18, method *: 40° C., 0.1% aqueous formic acid and acetonitrile, linear gradient 10% to 95% acetonitrile
row,Compound,logP
1,CC(C)C1COC(=O)N1c1ccc(Nc2ncc(Cl)c(NC3CC3)n2)cc1 (stereo not shown) [compound 109],2.79*
2,CC(Nc1nc(Nc2ccc(F)cc2)ncc1Cl)C1CC1 (stereo not shown) [compound 167],2.27*

# The next lines start with the values.
row,logP,Compound
1,1.68*,FC(F)c1cnc(Nc2ccccc2)nc1NCC1CC1 [compound 773]
2,2.6*,Clc1ccccc1Nc1ncc(Cl)c(NC2CC2)n1 [compound 940]
3,2.36*,FC(F)Oc1ccccc1Nc1ncc(Cl)c(NC2CC2)n1 [compound 943]
4,1.58*,CC(=O)N(C)c1ccc(Nc2ncc(Cl)c(NCC3CC3)n2)cc1 [compound 671]
5,2.13*,CCOc1ccccc1Nc1ncc(Cl)c(NC2CC2)n1 [compound 876]
6,1.53*,COc1ccc(Nc2ncc(Br)c(NC3CC3)n2)cc1OC [compound 742]
7,1.71*,COc1cc(Nc2ncc(Br)c(NC3CC3)n2)cc(OC)c1OC [compound 761]
8,3.46*,Cc1cc(Cl)c(Br)cc1Nc1ncc(Cl)c(NC2CC2)n1 [compound 933]
9,2.18*,CSc1ccccc1Nc1ncc(Cl)c(NC2CC2)n1 [compound 880]
10,1.97*,COc1cccc(Nc2ncc(Cl)c(NCC3CC3)n2)c1 [compound 668]
11,2.18*,CCOc1cccc(Nc2ncc(Br)c(NC3CC3)n2)c1 [compound 751]
12,2.46*,Clc1cnc(Nc2ccccc2-c2ccccc2)nc1NC1CC1 [compound 900]
13,1.52*,C/C(=N/O)c1cccc(Nc2ncc(Cl)c(NC3CC3)n2)c1 [compound 736]
14,2.13*,CCc1ccc(Nc2ncc(Cl)c(NC3CC3)n2)cc1 [compound 951]

# Same assay, conditions: HPLC on reversed-phase C18, method *: 40° C.; mobile phase 0.1% aqueous formic acid and acetonitrile; linear gradient 10% to 95% acetonitrile
row,logP,Compound
1,1.85*,COC(=O)Cc1ccc(Nc2ncc(Cl)c(NC3CC3)n2)cc1 [compound 287]
2,4.04*,Clc1cc(Cl)cc(Nc2ncc(Cl)c(NC3CC3)n2)c1 [compound 291]
3,2.21*,Clc1cnc(Nc2cccc(-c3nccs3)c2)nc1NC1CC1 [compound 297]
4,1.9*,Clc1cnc(Nc2ccc(-c3cscn3)cc2)nc1NC1CC1 [compound 286]
5,1.63*,COC(=O)N(C)c1ccc(Nc2ncc(Cl)c(NC3CC3)n2)cc1 [compound 339]
6,1.47*,COc1ccc(Nc2ncc(Cl)c(NC3CC3)n2)cc1OC [compound 279]

# Same assay, conditions: HPLC on reversed-phase C18 column (EEC Directive 79/831 Annex V.A8); method **: 43° C.; 0.1% aqueous phosphoric acid and acetonitrile; linear gradient 10% to 95% acetonitrile
row,logP,Compound
1,3.49**,CSc1cccc(Nc2ncc(C(F)(F)F)c(NC3CC3)n2)c1 [compound 266]

# Same assay, conditions: HPLC on reversed-phase C18 column (EEC Directive 79/831 Annex V.A8); method *: 40° C.; 0.1% aqueous formic acid and acetonitrile; linear gradient 10% to 95% acetonitrile
row,logP,Compound
1,3.07*,CC(C)(C)NC(=O)c1ccc(Nc2ncc(C(F)(F)F)c(NCC3CC3)n2)cc1 [compound 207]
2,1.47*,CN1C(=O)COc2cc(Nc3ncc(Cl)c(NC4CC4)n3)ccc21 [compound 179]
3,2.53*,COc1cc(Nc2ncc(Cl)c(NC3CC3)n2)ccc1Cl [compound 256]
4,2.49*,Brc1cnc(Nc2ccc(-c3nccs3)cc2)nc1NC1CC1 [compound 251]
5,3.29*;,CSc1cccc(Nc2ncc(C(F)(F)F)c(NC3CC3)n2)c1 [compound 266]
6,1.47*,CS(=O)(=O)Nc1cccc(Nc2ncc(Cl)c(NC3CC3)n2)c1 [compound 242]
7,2.77*,CC(C)(C)C(=O)Nc1cccc(Nc2ncc(C(F)(F)F)c(NCC3CC3)n2)c1 [compound 205]
8,1.62*,O=S(=O)(Cc1cccc(Nc2ncc(Cl)c(NC3CC3)n2)c1)N1CCOCC1 [compound 261]

# Same assay, conditions: HPLC reversed-phase C 18, EEC Directive 79/831 Annex V.A8; method **: 43° C., 0.1% aqueous phosphoric acid and acetonitrile, linear gradient 10% to 95% acetonitrile
row,logP,Compound
1,1.46**,O=c1ccccn1-c1cccc(Nc2ncc(Br)c(NC3CC3)n2)c1 [compound 833]
2,1.47**,Cc1nc(Nc2cccc(N3CCCC3=O)c2)nc(NC2CC2)c1Cl [compound 838]

# Same assay, conditions: HPLC reversed-phase C 18, EEC Directive 79/831 Annex V.A8; method *: 40° C., 0.1% aqueous formic acid and acetonitrile, linear gradient 10% to 95% acetonitrile
row,logP,Compound
1,2.74*,COC(c1cccc(Nc2ncc(Cl)c(NCC3CC3)n2)c1)C(F)(F)F (stereo not shown) [compound 792]
2,1.46*;,O=c1ccccn1-c1cccc(Nc2ncc(Br)c(NC3CC3)n2)c1 [compound 833]
3,1.68*,O=C1OCCN1c1cccc(Nc2ncc(Br)c(NCC3CC3)n2)c1 [compound 862]
4,2.07*,CC(C)(C)NC(=O)c1cccc(Nc2ncc(Cl)c(NC3CC3)n2)c1 [compound 831]
5,1.24*,O=C1COCCN1c1cccc(Nc2ncc(Br)c(NC3CC3)n2)c1 [compound 789]
6,3.16*,COC(C)c1cccc(Nc2ncc(C(F)(F)F)c(NC3CC3)n2)c1 (stereo not shown) [compound 826]
7,1.32*,O=C(O)c1cccc(Nc2ncc(Cl)c(NC3CC3)n2)c1 [compound 785]
8,1.48*,CC(=O)Cc1ccc(Nc2ncc(Cl)c(NC3CC3)n2)cc1 [compound 851]
9,1.88*,O=C1COCCN1c1cccc(Nc2ncc(C(F)(F)F)c(NC3CC3)n2)c1 [compound 790]

# Same assay, conditions: method **: HPLC reversed-phase C 18, 43° C., 0.1% aqueous phosphoric acid and acetonitrile, linear gradient 10% to 95% acetonitrile
row,logP,Compound
1,2.09**,C=CCNS(=O)(=O)c1ccc(Nc2ncc(Cl)c(NC3CC3)n2)cc1 [compound 31]
2,2.36**,CN(C)S(=O)(=O)c1ccc(Nc2ncc(Cl)c(NCC3CC3)n2)cc1 [compound 14]

# Same assay, conditions: method **: HPLC reversed-phase C 18, temperature 43° C.; mobile phase 0.1% aqueous phosphoric acid and acetonitrile; linear gradient 10% to 95% acetonitrile
row,logP,Compound
1,1.81**,CNC(=O)c1ccc(Nc2ncc(C(F)(F)F)c(NC3CC3)n2)cc1 [compound 651]
2,2.38**,Brc1cnc(Nc2cccc(N3CCCC3)c2)nc1NC1CC1 [compound 621]

# Same assay, conditions: method *: HPLC reversed-phase C18, 40° C., 0.1% aqueous formic acid and acetonitrile, linear gradient 10% to 95% acetonitrile
row,logP,Compound
1,3.72*,FC(F)(F)Sc1ccc(Nc2ncc(Cl)c(NC3CC3)n2)cc1 [compound 376]
2,1.83*,Brc1cnc(Nc2ccc3c(c2)OCO3)nc1NCC1CC1 [compound 418]
3,6.16*,CCCCCCCCSc1cccc(Nc2ncc(Cl)c(NC3CC3)n2)c1.Cc1ccc(S(=O)(=O)O)cc1 [compound 442]
4,1.49*,O=C1CCCN1c1ccc(Nc2ncc(Br)c(NC3CC3)n2)cc1 [Example 97]
5,2.15*,CC(C)(C)OC(=O)NCc1ccc(Nc2ncc(Cl)c(NC3CC3)n2)cc1 [compound 90]
6,1.59*,O=S(=O)(Cc1cccc(Nc2ncc(Cl)c(NC3CC3)n2)c1)NC1CC1 [compound 372]
7,2.2*,COC(=O)Nc1ccc(Nc2ncc(Br)c(NC3CC3)n2)cc1Cl [compound 430]
8,1.45*,O=C1CCCN1Cc1cccc(Nc2ncc(Cl)c(NC3CC3)n2)c1 [compound 433]
9,3.36*,CC(C)COc1cccc(Nc2ncc(Br)c(NC3CC3)n2)c1 [compound 445]
10,1.62*,CN(C)S(=O)(=O)Cc1cccc(Nc2ncc(Cl)c(NC3CC3)n2)c1 [compound 431]
11,1.91*,COc1cc(Nc2ncc(Cl)c(NC3CC3)n2)cc(OC)c1 [Example 3]

row,Compound,logP
1,CNC(=O)Oc1cccc(Nc2ncc(Br)c(NCC3CC3)n2)c1 [compound 429],1.68*

# Same assay, conditions: method *: HPLC reversed-phase C 18, temperature 40° C.; mobile phase 0.1% aqueous formic acid and acetonitrile; linear gradient 10% to 95% acetonitrile
row,logP,Compound
1,1.78*;,CNC(=O)c1ccc(Nc2ncc(C(F)(F)F)c(NC3CC3)n2)cc1 [compound 651]
2,1.73*,N#Cc1ccc(Nc2ncc(F)c(NC3CC3)n2)cc1 [compound 575]
3,2.48*,COc1cccc(Nc2ncc(C#N)c(NC3CC3)n2)c1 [compound 604]
4,1.14*,Cc1cnc(Nc2cccc(N3CCCC3=O)c2)nc1NC1CC1 [compound 567]
5,2.35*,CCc1cccc(Nc2ncc(Cl)c(NC3CC3)n2)c1 [compound 634]
6,2.13*,CSc1ccc(Nc2ncc(F)c(NC3CC3)n2)cc1Cl [compound 579]
7,1.17*,COc1cc(Nc2ncc(F)c(NC3CC3)n2)ccc1NC(C)=O [compound 572]
8,4.08*,FC(F)(F)Oc1cccc(Nc2ncc(C(F)(F)F)c(NC3CC3)n2)c1 [compound 643]
9,3.15*,Fc1cccc(Nc2ncc(Cl)c(NC3CC3)n2)c1 [compound 620]

# Same assay, conditions: method *: HPLC, reversed-phase C 18, 40° C., mobile phase 0.1% aqueous formic acid and acetonitrile, linear gradient from 10% to 95% acetonitrile
row,logP,Compound
1,1.46*,COCCN(C)C(=O)c1cccc(Nc2ncc(Cl)c(NC3CC3)n2)c1 [compound 1064]
2,2.13*,CN(c1nc(Nc2cccc(N3CCOC3=O)c2)ncc1Cl)C1CC1 [compound 1055]

# Same assay, conditions: pH 2.3; read-out: logP (pH2.3)
row,chromatographic logP,Compound
1,2.97,"CC(Nc1nc(Cl)ncc1Cl)C1CC1 (stereo not shown) [2,5-dichloro-N-(1-cyclopropylethyl)pyrimidine-4-amine]"
2,2.09,"CCOC1(Nc2nc(Cl)ncc2Cl)CC1 [2,5-Dichloro-N-(1-ethoxycyclopropyl)pyrimidine-4-amine]"
